Key:
[1] = tested on: T. b. brucei Lister427 bloodstream form parasites; test: T. b. brucei growth inhibition assay (CellTiter-Glo, 48 hours); format: cell-based; settings: Trypanosoma brucei
Excerpt: Bloodstream form of T. b. brucei Lister427 strain was obtained from the Genomics Institute of the Novartis Research Foundation. This strain was used for carrying out growth inhibition and kill kinetics assays. T. b. gambiense STIB930 and T. b. rhodesiense STIB900 were obtained from Swiss TPH, were used for carrying out the growth inhibition assays.
Bloodstream form T. b. brucei Lister 427 parasites were continuously passaged in HMI-9 medium formulated from IMDM medium (Invitrogen), 10% heat-inactivated fetal bovine serum (FBS), 10% Serum Plus medium supplement (SAFC Biosciences), 1 mM hypoxanthine (Sigma-Aldrich), 50 μM bathocuproine disulfonic acid (Sigma-Aldrich), 1.5 mM cysteine (Sigma-Aldrich), 1 mM pyruvic acid (Sigma-Aldrich), 39 μg/mL thymidine (Sigma-Aldrich), and 14 μL/L beta-mercapthoethanol (Sigma-Aldrich); all concentrations of added components refer to that in complete HMI-9 medium. The parasites were cultured in 10 mL of HMI-9 medium in T75 CELL-STAR tissue culture flasks at 37° C./5% CO2.
To determine compound growth inhibitory potency on T. b. brucei Lister427 bloodstream form parasites, 200 nL of 10-point, 3 fold serially diluted compounds in DMSO were transferred to the wells of white, solid bottom 384-well plates (Greiner Bio-One) by either Echo 555 acoustic liquid handling system or Mosquito. Then, 1×10^4 of T. b. brucei parasites in 40 μL of HMI-9 medium were added to each well, and the plates were incubated for 48 hours at 37° C. in 5% CO2 incubators. Parasite numbers in individual plate wells were determined through quantification of intracellular ATP amount. The CellTiter-Glo luminescent cell viability reagent (Promega) was added to plate wells, and ATP-dependent luminescence signal was measured on Tecan M1000 plate Reader after 30 min incubation. Luminescence values in wells with compounds were divided by the average luminescence value of the plate DMSO controls, and used for calculation of compound IC50 values.

[2] = tested on: intracellular T. cruzi amastigotes; test: T. cruzi amastigote growth inhibition assay (NIH 3T3 host cells, β-galactosidase readout); format: cell-based; settings: Trypanosoma cruzi, NIH3T3, read-out: (c) T.c.* IC50
Experimental: NIH 3T3 fibroblast cells (ATCC) were maintained in RPMI-1640 medium (Life Technologies) supplemented with 10% heat-inactivated fetal bovine serum and 100 IU penicillin/100 μg/ml streptomycin at 37° C./5% CO2. T. cruzi Tulahuen parasites constitutively expressing E. coli β-galactosidase were maintained in tissue culture as an infection in NIH 3T3 fibroblast cells. Briefly, 2×10^7 T. cruzi trypomastigotes were used to infect 6×10^5 NIH 3T3 cells growing in T75 CELLSTAR tissue culture flasks and cultured at 37° C./5% CO2 until proliferating intracellular parasites lysed host 3T3 cells and were released into the culture medium (typically 6-7 days). During the infection, the tissue culture medium was changed every two days. Number of T. cruzi trypomastigotes present in 1 ml of medium was determined using a haemocytometer.
To determine compound potency on intracellular T. cruzi amastigotes, NIH 3T3 cells were re-suspended in phenol red-free RPMI-1640 medium containing 3% heat-inactivated fetal bovine serum and 100 IU penicillin/100 μg/ml streptomycin, seeded at 1,000 cells/well (40 μl) in white, clear bottom 384-well plates (Greiner Bio-One), and incubated overnight at 37° C./5% CO2. The following day, 100 nl of each compound in DMSO were transferred to individual plate wells by Echo 555 acoustic liquid handling system. After one hour incubation, 1×10^6 of tissue culture-derived T. cruzi trypomastigotes, in 10 μl of phenol red-free RPMI-1640 medium supplemented with 3% heat-inactivated fetal bovine serum and 100 IU penicillin/100 μg/ml streptomycin were added to each well. Plates were then incubated for 6 days at 37° C./5% CO2. Intracellular T. cruzi parasites were quantified by measuring the activity of parasite-expressed β-galactosidase. Ten microliters of a chromogenic β-galactosidase substrate solution (0.6 mM chlorophenol red-β-D-galactopyranoside/0.6% NP-40 in PBS; both reagents from Calbiochem) were added to each well and incubated for 2 h at room temperature. After incubation, absorption was measured at 570 nm on SpectraMax M2 plate reader (Molecular Devices). Measured absorbance values in wells with compounds were divided by the average absorbance value of the plate DMSO controls, and used for calculation of compound EC50 values as described above.

SMILES	IC50 [1]	IC50 [2]
N#Cc1ncn(CC(=O)N2Cc3ccc(-c4cccnc4C(F)F)cc3C2)n1 [Example 1, 1-(2-(5-(2-(difluoromethyl)pyridin-3-yl)isoindolin-2-yl)-2-oxoethyl)-1H-1,2,4-triazole-3-carbonitrile]	0.1 to 1 µM	0.1 to 1 µM
N#Cc1ncn(CC(=O)N2Cc3ccc(-c4c(Cl)cncc4C(F)(F)F)cc3C2)n1 [Example 2, 1-(2-(5-(3-chloro-5-(trifluoromethyl)pyridin-4-yl)isoindolin-2-yl)-2-oxoethyl)-1H-1,2,4-triazole-3-carbonitrile]	0.1 to 1 µM	< 0.1 µM
N#Cc1ncn(CC(=O)N2Cc3ccc(-c4cc(F)ncc4Cl)cc3C2)n1 [Example 3, 1-(2-(5-(5-chloro-2-fluoropyridin-4-yl)isoindolin-2-yl)-2-oxoethyl)-1H-1,2,4-triazole-3-carbonitrile]	< 0.1 µM	< 0.1 µM
N#Cc1ncn(CC(=O)N2Cc3ccc(-c4cccc(Cl)c4C(F)(F)F)cc3C2)n1 [Example 4, 1-(2-(5-(3-chloro-2-(trifluoromethyl)phenyl)isoindolin-2-yl)-2-oxoethyl)-1H-1,2,4-triazole-3-carbonitrile]	< 0.1 µM	< 0.1 µM
N#Cc1ncn(CC(=O)N2Cc3ccc(-c4cccnc4OCC(F)(F)F)cc3C2)n1 [Example 5, 1-(2-oxo-2-(5-(2-(2,2,2-trifluoroethoxy)pyridin-3-yl)isoindolin-2-yl)ethyl)-1H-1,2,4-triazole-3-carbonitrile]	0.1 to 1 µM	0.1 to 1 µM
Cc1ccc(-c2ccc3c(c2)CN(C(=O)Cn2cnc(C#N)n2)C3)c(C(F)(F)F)n1 [Example 6, 1-(2-(5-(6-methyl-2-(trifluoromethyl)pyridin-3-yl)isoindolin-2-yl)-2-oxoethyl)-1H-1,2,4-triazole-3-carbonitrile]	< 0.1 µM	< 0.1 µM
N#Cc1ncn(CC(=O)N2Cc3ccc(-c4c(C(F)(F)F)ccnc4Cl)cc3C2)n1 [Example 7, 1-(2-(5-(2-chloro-4-(trifluoromethyl)pyridin-3-yl)isoindolin-2-yl)-2-oxoethyl)-1H-1,2,4-triazole-3-carbonitrile]	0.1 to 1 µM	< 0.1 µM
N#Cc1ncn(CC(=O)N2Cc3ccc(-c4cncc(F)c4C(F)(F)F)cc3C2)n1 [Example 9, 1-(2-(5-(5-fluoro-4-(trifluoromethyl)pyridin-3-yl)isoindolin-2-yl)-2-oxoethyl)-1H-1,2,4-triazole-3-carbonitrile]	0.1 to 1 µM	0.1 to 1 µM
N#Cc1ncn(CC(=O)N2Cc3ccc(-c4c(F)cc(F)cc4Cl)cc3C2)n1 [Example 10, 1-(2-(5-(2-chloro-4,6-difluorophenyl)isoindolin-2-yl)-2-oxoethyl)-1H-1,2,4-triazole-3-carbonitrile]	< 0.1 µM	< 0.1 µM
N#Cc1ncn(CC(=O)N2Cc3ccc(-c4ccc(F)cc4N4CCCC4)cc3C2)n1 [Example 11, 1-(2-(5-(4-fluoro-2-(pyrrolidin-1-yl)phenyl)isoindolin-2-yl)-2-oxoethyl)-1H-1,2,4-triazole-3-carbonitrile]	0.1 to 1 µM	0.1 to 1 µM
N#Cc1ncn(CC(=O)N2Cc3ccc(-c4c(F)cccc4C(F)(F)F)cc3C2)n1 [Example 12, 1-(2-(5-(2-fluoro-6-(trifluoromethyl)phenyl)isoindolin-2-yl)-2-oxoethyl)-1H-1,2,4-triazole-3-carbonitrile]	< 0.1 µM	< 0.1 µM
Cc1ncccc1-c1ccc2c(c1)CN(C(=O)Cn1cnc(C#N)n1)C2 [Example 13, 1-(2-(5-(2-methylpyridin-3-yl)isoindolin-2-yl)-2-oxoethyl)-1H-1,2,4-triazole-3-carbonitrile]	0.1 to 1 µM	0.1 to 1 µM
COc1ccc(-c2ccc3c(c2)CN(C(=O)Cn2cnc(C#N)n2)C3)c(C(F)(F)F)n1 [Example 14, 1-(2-(5-(6-methoxy-2-(trifluoromethyl)pyridin-3-yl)isoindolin-2-yl)-2-oxoethyl)-1H-1,2,4-triazole-3-carbonitrile]	0.1 to 1 µM	< 0.1 µM
N#Cc1ncn(CC(=O)N2Cc3ccc(-c4c(F)ccc(F)c4Cl)cc3C2)n1 [Example 15, 1-(2-(5-(2-chloro-3,6-difluorophenyl)isoindolin-2-yl)-2-oxoethyl)-1H-1,2,4-triazole-3-carbonitrile]	< 0.1 µM	< 0.1 µM
N#Cc1ncn(CC(=O)N2Cc3ccc(-c4c(F)cncc4C(F)(F)F)cc3C2)n1 [Example 16, 1-(2-(5-(3-fluoro-5-(trifluoromethyl)pyridin-4-yl)isoindolin-2-yl)-2-oxoethyl)-1H-1,2,4-triazole-3-carbonitrile]	0.1 to 1 µM	< 0.1 µM
N#Cc1ncn(CC(=O)N2Cc3ccc(-c4cccnc4OC(F)(F)F)cc3C2)n1 [Example 17, 1-(2-oxo-2-(5-(2-(trifluoromethoxy)pyridin-3-yl)isoindolin-2-yl)ethyl)-1H-1,2,4-triazole-3-carbonitrile]	0.1 to 1 µM	0.1 to 1 µM
N#Cc1ncn(CC(=O)N2Cc3ccc(-c4c(Cl)ccnc4C(F)(F)F)cc3C2)n1 [Example 18, 1-(2-(5-(4-chloro-2-(trifluoromethyl)pyridin-3-yl)isoindolin-2-yl)-2-oxoethyl)-1H-1,2,4-triazole-3-carbonitrile]	0.1 to 1 µM	< 0.1 µM
N#Cc1ncn(CC(=O)N2Cc3ccc(-c4cccnc4CC(F)(F)F)cc3C2)n1 [Example 19, 1-(2-oxo-2-(5-(2-(2,2,2-trifluoroethyl)pyridin-3-yl)isoindolin-2-yl)ethyl)-1H-1,2,4-triazole-3-carbonitrile]	0.1 to 1 µM	0.1 to 1 µM
N#Cc1ncn(CC(=O)N2Cc3ccc(-c4c(F)ccnc4C(F)(F)F)cc3C2)n1 [Example 20, 1-(2-(5-(4-fluoro-2-(trifluoromethyl)pyridin-3-yl)isoindolin-2-yl)-2-oxoethyl)-1H-1,2,4-triazole-3-carbonitrile]	< 0.1 µM	< 0.1 µM
N#Cc1ncn(CC(=O)N2Cc3ccc(-c4c(F)ccnc4Cl)cc3C2)n1 [Example 21, 1-(2-(5-(2-chloro-4-fluoropyridin-3-yl)isoindolin-2-yl)-2-oxoethyl)-1H-1,2,4-triazole-3-carbonitrile]	0.1 to 1 µM	< 0.1 µM
N#Cc1ncn(CC(=O)N2Cc3ccc(-c4c(C(F)(F)F)ccnc4F)cc3C2)n1 [Example 22, 1-(2-(5-(2-fluoro-4-(trifluoromethyl)pyridin-3-yl)isoindolin-2-yl)-2-oxoethyl)-1H-1,2,4-triazole-3-carbonitrile]	0.1 to 1 µM	< 0.1 µM
N#Cc1ncn(CC(=O)N2Cc3ccc(-c4c(F)cncc4Cl)cc3C2)n1 [Example 23, 1-(2-(5-(3-chloro-5-fluoropyridin-4-yl)isoindolin-2-yl)-2-oxoethyl)-1H-1,2,4-triazole-3-carbonitrile]	< 0.1 µM	0.1 to 1 µM
N#Cc1ncn(CC(=O)N2Cc3ccc(-c4c(Cl)ccnc4F)cc3C2)n1 [Example 24, 1-(2-(5-(4-chloro-2-fluoropyridin-3-yl)isoindolin-2-yl)-2-oxoethyl)-1H-1,2,4-triazole-3-carbonitrile]	0.1 to 1 µM	0.1 to 1 µM
Cn1cc(-c2ccc3c(c2)CN(C(=O)Cn2cnc(C#N)n2)C3)c(C(F)(F)F)n1 [Example 25, 1-(2-(5-(1-methyl-3-(trifluoromethyl)-1H-pyrazol-4-yl)isoindolin-2-yl)-2-oxoethyl)-1H-1,2,4-triazole-3-carbonitrile]	0.1 to 1 µM	0.1 to 1 µM

From patent publication US20220106296A1, “CYANOTRIAZOLE COMPOUNDS AND USES THEREOF” (Novartis AG, priority 2018, published 2022)
